Test results: PubChem BioAssay (NCI)
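Cultured in 96-well plates, cells were exposed to test compound for 48 hours across five concentrations. At the TGI there is no net growth.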

Assays:
Assay in all cases: inhibition of tumour cell growth, NCI panel, 48 h
[1] = test system: CCRF-CEM leukemia
[2] = test system: RPMI-8226 leukemia
[3] = test system: HL-60(TB) leukemia
[4] = test system: UACC-62 melanoma
[5] = test system: UO-31 renal
[6] = test system: MOLT-4 leukemia
[7] = test system: DU-145 prostate
[8] = test system: MDA-MB-435
[9] = test system: HT29 colon
[10] = test system: A549 NSCLC
[11] = test system: CAKI-1 renal
[12] = test system: U251 CNS
[13] = test system: SK-MEL-28 melanoma
[14] = test system: SN12C renal
[15] = test system: NCI-H522 lung
[16] = test system: MDA-MB-231 breast
[17] = test system: UACC-257 melanoma
[18] = test system: NCI/ADR-RES ovarian
[19] = test system: K-562 leukemia
[20] = test system: MALME-3M melanoma
[21] = test system: BT-549 breast
[22] = test system: MCF7 breast
[23] = test system: HOP-92 NSCLC
[24] = test system: EKVX NSCLC
[25] = test system: OVCAR-3 ovarian
[26] = test system: OVCAR-8 ovarian
[27] = test system: IGROV1 ovarian
[28] = test system: OVCAR-5 ovarian
[29] = test system: SW-620 colon
[30] = test system: NCI-H226 lung
[31] = test system: OVCAR-4 ovarian
[32] = test system: HCT-116 colon
[33] = test system: COLO 205 colon
[34] = test system: LOX IMVI melanoma
[35] = test system: HOP-62 NSCLC
[36] = test system: TK-10 renal
[37] = test system: NCI-H460 lung
[38] = test system: 786-0 renal
[39] = test system: SF-268 CNS
[40] = test system: SNB-19 CNS
[41] = test system: M14 melanoma
[42] = test system: NCI-H23 lung
[43] = test system: HS 578T breast
[44] = test system: SK-MEL-5 melanoma
[45] = test system: HCT-15 colon
[46] = test system: SF-295 CNS
[47] = test system: T-47D breast
[48] = test system: KM12 colon
[49] = test system: PC-3 prostate
[50] = test system: SK-MEL-2 melanoma

Work on `CC(C)=NN/C(=N\S(=O)(=O)c1cc2ccccc2s1)Nc1ccc(Cl)cc1` yielded a TGI [1] of over 100 µM, a TGI [2] of over 100 µM and a TGI [3] of over 100 µM. The TGI [4] was over 100 µM, the TGI [5] was over 100 µM and the TGI [6] was over 100 µM. It also gave a TGI [7] of over 100 µM, a TGI [8] of over 100 µM and a TGI [9] of over 100 µM. For the same compound, the TGI [10] was over 100 µM, the TGI [11] was over 100 µM and the TGI [12] was over 100 µM. It also gave a TGI [13] of over 100 µM, a TGI [14] of over 100 µM and a TGI [15] of over 100 µM. The TGI [16] was over 100 µM, the TGI [17] was over 100 µM and the TGI [18] was over 100 µM. It also gave a TGI [19] of over 100 µM, a TGI [20] of over 100 µM and a TGI [21] of over 100 µM. For the same compound, the TGI [22] was over 100 µM, the TGI [23] was over 100 µM and the TGI [24] was 60.2 µM. For the same compound, the TGI [25] was over 100 µM, the TGI [26] was over 100 µM and the TGI [27] was over 100 µM. The TGI [28] was over 100 µM, the TGI [29] was over 100 µM and the TGI [30] was over 100 µM. For the same compound, the TGI [31] was over 100 µM, the TGI [32] was over 100 µM and the TGI [33] was over 100 µM. The TGI [34] was over 100 µM, the TGI [35] was over 100 µM and the TGI [36] was over 100 µM. For the same compound, the TGI [37] was over 100 µM, the TGI [38] was over 100 µM and the TGI [39] was over 100 µM. For the same compound, the TGI [40] was over 100 µM, the TGI [41] was over 100 µM and the TGI [42] was over 100 µM. It also gave a TGI [43] of over 100 µM, a TGI [44] of over 100 µM and a TGI [45] of over 100 µM. The TGI [46] was over 100 µM, the TGI [47] was 76.3 µM and the TGI [48] was over 100 µM. The TGI [49] was over 100 µM and the TGI [50] was over 100 µM.
